Measured values from US10745355B2, “Anti-cancer compounds” (THE UNIVERSITY OF SYDNEY, priority 2015, dated 2020).

Experiments:
[1] = test system: RN1 gliomaspheres (classical); assay: AlamarBlue cell viability assay, RN1 gliomaspheres; type: cell-based; conditions: 72 h of drug treatment, FIG. 11A
Description: (§1) FIGS. 11A-11B. Efficacy of SC-38 (referred to as “CMPD1”), compound 1-08 (referred to as “cmpd 13”), compound 1-18 (referred to as “cmpd 7”), and compound 1-38 (referred to as “cmpd 10”) in primary gliomaspheres representing two glioblastoma subtypes. (11A) RN1, classical, and (11B) WK1, mesenchymal. Cellular efficacy (EC50) of test compounds was determined using AlamarBlue cell viability assay after 72 h of drug treatment. Data are mean±SEM from 3 independent experiments performed in triplicate.
U87 and U251 cell lines were obtained from the European Collection of Cell Cultures (ECACC) through CellBank Australia. U87-EGFRvIII cell line was obtained from their lab of origin (Nishikawa et al., 1994, Proc Natl Acad Sci USA 91: 7727-7731) and tested for EGFR amplification and mutation by immunoblotting and flow cytometry. Cells were cultured in DMEM medium (Invitrogen by Life Technologies, Carlsbad, Calif., USA) supplemented with 10% FBS (Sigma-Aldrich) at 37° C. and 5% CO2. Primary gliomaspheres (RN1, classical; WK1, mesenchymal) were derived from glioblastoma specimens (Day et al., 2013, Cancers 5: 357-371; Day et al., 2013, Cancer Cell 23: 238-248), maintained in StemPro NSC serum-free media supplemented with EGF and FGF (all Life Technologies), and grown on matrigel-coated flasks (Pollard et al., 2009, Cell Stem Cell 4: 568-580). […]

[2] = test system: U251; assay: Alamar blue cell viability assay, U251 cells; type: cell-based; conditions: Homo sapiens, U-251; 72 hours of treatment; mean±SEM, three independent experiments
Description: (§2) U87 and U251 cell lines were obtained from the European Collection of Cell Cultures (ECACC) through CellBank Australia. U87-EGFRvIII cell line was obtained from their lab of origin (Nishikawa et al., 1994, Proc Natl Acad Sci USA 91: 7727-7731) and tested for EGFR amplification and mutation by immunoblotting and flow cytometry. Cells were cultured in DMEM medium (Invitrogen by Life Technologies, Carlsbad, Calif., USA) supplemented with 10% FBS (Sigma-Aldrich) at 37° C. and 5% CO2. Primary gliomaspheres (RN1, classical; WK1, mesenchymal) were derived from glioblastoma specimens (Day et al., 2013, Cancers 5: 357-371; Day et al., 2013, Cancer Cell 23: 238-248), maintained in StemPro NSC serum-free media supplemented with EGF and FGF (all Life Technologies), and grown on matrigel-coated flasks (Pollard et al., 2009, Cell Stem Cell 4: 568-580).
Cell viability was determined using Alamar blue assay after 72 hours of treatment (Table 2). EC50 values were calculated using non-linear regression on Graph Pad Prism version 5. c Log P values calculated using ChemBioDraw Software. Results are mean±SEM from three independent experiments performed in triplicates.

[3] = test system: U87vIII; assay: Annexin-FITC/7-AAD apoptosis assay, U87vIII cells; type: cell-based; conditions: 48 hours treatment
Description: FIGS. 4A-4D. […] U87 (4A-4B) and U87vIII (4C-4D) cells were treated with SC-38 for 48 hours and stained with Annexin-FITC/7-AAD. Apoptotic cells were visualized using the MUSE cell analyzer (Millipore).
FIGS. 6A-6D. […] U87 (A B) (6A-6B) and U87vIII (6C-6D) cells were treated with compound 1-08 for 48 hours and stained with Annexin-FITC/7-AAD. Apoptotic cells were visualized using the MUSE cell analyzer (Millipore). Results are means±SEM from 3 independent experiments. One-way ANOVA followed by Dunnet post-test was used to calculate statistical significance (***P<0.001).
(§3) U87 (FIGS. 4, A-B) and U87vIII (FIG. 4, C-D) cells were treated with SC-38 for 48 hours and stained with Annexin-FITC/7-AAD. Apoptotic cells were visualized using the MUSE cell analyzer (Millipore). Results are means±SEM from 3 independent experiments. One-way ANOVA followed by Dunnet post-test was used to calculate statistical significance (**P<0.01, ***P<0.001)
as §3, with “6,” for “4,”, “compound 1-08” for “SC-38”, “three” for “3”, “(***P<0.001).” for “(**P<0.01, ***P<0.001)”

[4] = test system: WK1 gliomaspheres (mesenchymal); assay: AlamarBlue cell viability assay, WK1 gliomaspheres; type: cell-based; conditions: 72 h of drug treatment, FIG. 11B
Description: as §1, §2
The effect of SC-38, and compounds 1-08, 1-18 and 1-38 in a cell viability assay employing patient-derived gliomaspheres was also investigated. RN1 gliomaspheres representing glioblastoma of the classical subtype were most responsive to the treatment (FIG. 11, where SC-38 is referred to as “CMPD1”, compound 1-08 is referred to as “compound 13”, compound 1-18 is referred to as “compound 7”, and compound 1-38 is referred to as “compound 10”).

[5] = biological target: T1, MERTK (Homo sapiens, UniProt Q12866); assay: Kinase profiling (ProQinase 33PanQinase Activity Assay), MERTK (table: MERK); type: biochemical
T1 sequence (Q12866 21-999): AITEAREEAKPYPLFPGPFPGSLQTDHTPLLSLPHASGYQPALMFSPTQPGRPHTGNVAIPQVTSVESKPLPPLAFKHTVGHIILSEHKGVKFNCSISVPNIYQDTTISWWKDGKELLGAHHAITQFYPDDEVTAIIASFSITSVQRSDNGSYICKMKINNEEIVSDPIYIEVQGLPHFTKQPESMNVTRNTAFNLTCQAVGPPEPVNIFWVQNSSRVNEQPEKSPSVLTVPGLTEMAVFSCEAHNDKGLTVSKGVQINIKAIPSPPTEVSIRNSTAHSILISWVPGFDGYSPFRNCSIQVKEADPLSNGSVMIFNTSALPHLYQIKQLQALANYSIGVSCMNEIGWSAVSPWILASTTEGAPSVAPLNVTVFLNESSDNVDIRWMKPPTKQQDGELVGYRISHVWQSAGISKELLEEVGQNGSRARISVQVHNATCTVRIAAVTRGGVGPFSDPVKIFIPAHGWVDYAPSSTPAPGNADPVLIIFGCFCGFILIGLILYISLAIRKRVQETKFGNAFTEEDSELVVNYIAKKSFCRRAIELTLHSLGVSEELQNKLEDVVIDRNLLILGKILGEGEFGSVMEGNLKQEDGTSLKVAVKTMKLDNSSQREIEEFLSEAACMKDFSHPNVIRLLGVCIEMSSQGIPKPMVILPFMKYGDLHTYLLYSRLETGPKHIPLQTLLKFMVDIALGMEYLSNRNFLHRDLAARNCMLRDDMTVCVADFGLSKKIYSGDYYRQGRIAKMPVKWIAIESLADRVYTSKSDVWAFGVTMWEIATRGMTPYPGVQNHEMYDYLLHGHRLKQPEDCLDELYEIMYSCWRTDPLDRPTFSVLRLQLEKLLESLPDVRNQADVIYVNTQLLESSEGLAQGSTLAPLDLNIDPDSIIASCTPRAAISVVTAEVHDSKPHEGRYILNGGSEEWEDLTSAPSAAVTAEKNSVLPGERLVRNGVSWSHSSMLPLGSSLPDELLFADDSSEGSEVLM
Description: The kinase profiling of compound 1-08 at 10 and 50 μM was performed by ProQinase GmbH (Freiburg, Germany). A radiometric protein kinase assay (^33PanQinase® Activity Assay) and the non-radiometric ADP-Glo™ Assay (Promega, Madison, Wis., USA) were used for measuring kinase activity of 387 protein kinases and 13 lipid kinases, respectively. The results are shown in Table 3 (only the top 10 kinases are listed, and the selectivity score describes the portion of kinases inhibited more than 50% in relation to all tested kinases).
At 10 μM, compound 1-08 inhibited MERTK at the 51% level. Several other kinases were inhibited at 50 μM concentration.

EC50 [2]: 980 ± 200 nM
inhibition at 10 µM ([5]; 10 μM compound): 51%
remaining activity at 10 µM ([5]; 10 μM compound, read-out: residual activity, MERK): 49%
remaining activity at 50 µM ([5]; 50 μM compound, read-out: residual activity, MERK): 12%
Compound: O=C(CCCc1ccc(-c2cnc3ccccc3c2)cc1)Nc1ccc(O)cc1 [Compound 1-08, N-(4-hydroxyphenyl)-4-(4-(quinolin-3-yl)phenyl)butanamide]
EC50 [1]: 540 nM
apoptosis, U87vIII [3]: induced apoptosis
EC50 [4]: 3820 nM
